Experiments:
[1] = Preclinical safety / toxicology of TP; type: in vivo; conditions: nonclinical
Excerpt: (§1) Treprostinil palmitil (TP) is a hexadecyl ester prodrug of treprostinil (TRE). In the lung, TP is hydrolyzed by esterases to TRE and hexadecanol.

healthy adults = assay: Phase I single-dose safety and tolerability study of TPIP in healthy adults; type: in vivo, human
Experimental: Specifically, in a Phase I safety, tolerability, and PK study, healthy adults were administered single doses of 112.5 μg, 225 μg, 450 μg, and 675 μg of a compound of Formula (II).

[2] = Nonclinical studies of TP: delivery / PK and PD profile; type: in vivo
Excerpt: as §1

[3] = system: subjects with pulmonary hypertension, including pulmonary arterial hypertension; assay: Phase 2 safety and efficacy study in subjects with pulmonary hypertension; type: in vivo, human
Experimental: In a Phase 2 safety and efficacy study, the following doses of were investigated in subjects with pulmonary hypertension, including pulmonary arterial hypertension: 80 μg, 160 μg, 240 μg, 320 μg, 400 μg, 480 μg, and 640 μg. In this study, patients were administered a starting dose of 80 μg of the TPIP and the dose was titrated up to 640 μg according to FIG. 2.

rodent model of PAH = assay: Rodent model of PAH; type: in vivo; conditions: inhibits associated adverse pathology and pathophysiology
Excerpt: as §1

[4] = Nonclinical studies of TP: conversion of prodrug to treprostinil; type: in vitro ADME; conditions: nonclinical (in vitro and in vivo)
Excerpt: as §1

CCCCCCCCCCCCCCCCOC(=O)COc1cccc2c1C[C@H]1C[C@@H](O)[C@H](CC[C@@H](O)CCCCC)[C@H]1C2 [treprostinil palmitil]
preclinical safety [1]: did not demonstrate concerning preclinical safety or toxicological findings
serious or severe TEAEs (printed TEALs) (healthy adults; single doses 112.5, 225, 450, 675 μg): no serious or severe TEALs were observed
safety and tolerability (healthy adults; single doses 112.5, 225, 450, 675 μg / highest doses tested): safe and well-tolerated
delivery of treprostinil [2]: sustained delivery of treprostinil to the lungs and systemic circulation
tolerability ([3]; 80 μg to 640 μg, titrated): well tolerated
tolerability of 640 μg ([3]; 640 μg, highest dose administered in a clinical trial): well tolerated
efficacy at higher doses ([3]; higher doses): promising efficacy
efficacy in PAH model (rodent model of PAH): efficacious in a rodent model of PAH
conversion to treprostinil [4]: converted from the prodrug to the active drug, treprostinil

Source: patent US20260325546A1, “METHODS OF TREATMENT USING DRY POWDER COMPOSITIONS OF TREPROSTINIL PRODRUGS” (Insmed Incorporated, priority 2024, published 2026)
